From ChEMBL document CHEMBL1125108 (J Med Chem, 1990) come the findings set out here.

Molecules are shown by their SMILES. A value given as a limit tells only on which side of the number the result lay.

Type in all cases: tissue-based
In one assay the target is D(2) dopamine receptor (Rattus norvegicus, UniProt P61169). The experiment in a line: Binding affinity for Dopamine receptor D2 using [3H]spiperone in rat brain.
Assay [1] deals with Muscarinic acetylcholine receptor. The experiment in a line: Binding affinity was determined against Muscarinic acetylcholine receptor using [3H]QNB as radioligand in rat brain.
In another assay the target is D(1A) dopamine receptor (Rattus norvegicus, UniProt P18901). Kind of assay: Binding affinity against Dopamine receptor D1 using […] in rat brain.
D(1A) dopamine receptor, sequence (P18901 whole entry): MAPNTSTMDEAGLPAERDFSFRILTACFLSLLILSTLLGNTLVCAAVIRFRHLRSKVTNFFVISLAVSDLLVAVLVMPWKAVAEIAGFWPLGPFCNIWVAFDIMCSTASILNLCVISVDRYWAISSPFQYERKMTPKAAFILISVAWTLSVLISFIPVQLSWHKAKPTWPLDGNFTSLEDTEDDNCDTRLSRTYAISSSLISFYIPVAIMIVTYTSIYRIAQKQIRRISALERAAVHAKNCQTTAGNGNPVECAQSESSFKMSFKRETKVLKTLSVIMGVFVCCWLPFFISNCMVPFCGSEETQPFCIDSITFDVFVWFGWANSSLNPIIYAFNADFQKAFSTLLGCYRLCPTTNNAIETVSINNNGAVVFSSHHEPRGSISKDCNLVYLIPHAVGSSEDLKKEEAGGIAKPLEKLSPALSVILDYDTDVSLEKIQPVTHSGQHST

D(2) dopamine receptor, sequence (P61169 whole entry): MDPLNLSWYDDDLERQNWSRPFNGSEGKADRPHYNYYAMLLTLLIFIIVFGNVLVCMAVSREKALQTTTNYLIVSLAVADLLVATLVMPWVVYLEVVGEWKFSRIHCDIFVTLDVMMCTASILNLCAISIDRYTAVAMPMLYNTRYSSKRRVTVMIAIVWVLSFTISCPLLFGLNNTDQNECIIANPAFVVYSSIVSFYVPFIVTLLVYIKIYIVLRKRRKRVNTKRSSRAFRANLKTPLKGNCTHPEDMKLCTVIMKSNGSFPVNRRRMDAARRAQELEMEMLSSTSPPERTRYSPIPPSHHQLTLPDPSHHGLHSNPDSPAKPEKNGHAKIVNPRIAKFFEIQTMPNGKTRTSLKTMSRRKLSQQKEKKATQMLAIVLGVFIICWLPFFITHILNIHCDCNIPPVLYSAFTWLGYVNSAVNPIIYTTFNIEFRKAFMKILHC

In the case of `CC(C)=C1c2ccc(Cl)cc2C=C(N2CCN(C)CC2)c2ccccc21`, the concentration for half-maximal inhibition (IC50) on D(2) dopamine receptor turned out to be 5000 nM; in assay [1] it was 1750 nM; at D(1A) dopamine receptor it was 443 nM.
Turning to `C=C1c2ccc(Cl)cc2C=C(N2CCN(C)CC2)c2ccccc21`, the values for the IC50 (on D(2) dopamine receptor; in assay [1]; on D(1A) dopamine receptor) were 300 nM, 248 nM and 51 nM, respectively.
Taken in the same sequence, the figures for `C=C1c2ccccc2C=C(N2CCN(C)CC2)c2cc(Cl)ccc21` were 27 nM, 330 nM and 8 nM.
In the same order, the values of `CC(C)=C1c2ccccc2C=C(N2CCN(C)CC2)c2cc(Cl)ccc21` are > 10000 nM, 297 nM and 133 nM.
Regarding `CN1CCN(C2=Nc3ccccc3Nc3ccccc32)CC1`, at D(2) dopamine receptor, the IC50 was > 10000 nM.
On to `CC(C)=C1c2ccccc2C=C(N2CCN(C)CC2)c2ccccc21`, for which the IC50 on D(2) dopamine receptor is 4750 nM; in assay [1], 415 nM; on D(1A) dopamine receptor, 540 nM.
Consider `C=C1c2ccccc2C=C(N2CCN(C)CC2)c2ccccc21`, for which the IC50 on D(2) dopamine receptor stood at 305 nM; in assay [1], 150 nM; at D(1A) dopamine receptor, 21 nM.
